Here are results for 17 compounds from patent publication US20230146395A1, “Substituted Pyrimidines and Uses Thereof” (Verge Analytics, Inc., priority 2020, published 2023).

What is called IC50 is the concentration that gives 50% inhibition. The EC50 is the concentration needed to bring the measured effect to its halfway point.

Test [1] has as its target T1, Full length human recombinant PIKFYVE (Homo sapiens, UniProt Q9Y2I7).
T1 construct: Full length human recombinant PIKFYVE; purchased Carna Biosciences (Kobe, Japan); host or cells: baculovirus expression system
The test can be described thus: Inhibition of PIKfyve (microfluidic electrophoresis kinase assay, PI3P/PS substrate). The format is biochemical. The note with it: 12 concentrations. Summed up: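 GST-tagged full-length human PIKFYVE (baculovirus; 2 nM) with fluorescent PI3P/PS (1 μM PI3P) and […] in pH 7.5 HEPES with Mg2+/Mn2+, 1% DMSO, 3 h at room temperature. PI(3,5)P product/substrate ratio read by microfluidic electrophoresis; 12-point % inhibition versus no-enzyme and DMSO controls.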

Test [2] concerns ALS patient (SOD1 A4V) iPSC derived motor neurons. The test can be described thus: iPSC MN Survival assay (GFP imaging, six days, hazard ratio from Cox regression). The format is cell-based. The note with it: Homo sapiens, survival rescue, read-out: C9 iPSC MN Significant survival rescue EC50.
Test [3] concerns HEK 293T transfected with plasmids containing TDP-43 Q331K mutation. The experiment in a line: HEK/TDP Survival assay (Cell-Titer-Glo, 48 hrs, maximal effect of rescue). The format is cell-based. The note with it: Homo sapiens, HEK 293T with TDP-43 Q331K, (n) in brackets. Here is the method:
HEK/TDP Survival assay: Immortalized human embryonic kidney 293T (HEK 293T) were transfected with plasmids containing TDP-43 Q331K mutation, resulting in an increase in cell death that is biologically relevant to ALS patients. Cell death is measured as reductions in the amount of ATP, an indicator of metabolically active cells, that is quantified by a luminescence Cell-Titer-Glo® (CTG) reagent. Compounds are evaluated in this model for changes in CTG compared to a no treatment group. Increased signal indicates improved survival (rescue) and decreased signal indicates decreased survival.
Cell rescue was measured in a 96-well format with eight different concentrations of the test compound over 48 hours (hrs) with 6 replicates. The Promega Cell-Titer-Glo® Luminescent Cell Viability Assay was used to quantify ATP, an indicator of metabolically active cells (see protocol: https://www.promega.com/-/media/files/resources/protocols/technical-manuals/101/celltiterglo-2-0-assay-protocol.pdf?la=en). The luminescence signal was detected using the PerkinElmer EnVision or Molecular Devices SpectraMax.
The effect of a compound at a given dose on cell viability was determined using a three step procedure. First, Hedge's g for the Cell Titer-Glo luminescence values using six untreated wells on every plate as a control was calculated. […] Finally, values from all compound-dose pairs were corrected for multiple hypothesis testing using the Empirical Bayes framework of Stephens, M. (False discovery rates: a new deal, Biostatistics, 18 [2], 2017, 275-294) yielding credible intervals for the measured effect and associated s values.
Briefly, this method computes a local false sign rate for each experiment. Analogous to the local false discovery rate of Efron, B. (Size, power and false discovery rates, Ann. Statist. 35 [4], 2007, 1351-1377) this value measures the confidence in the sign of each effect (rather than confidence in each effect being non-zero). The s values reported in the previous figures are the expected fraction of errors if estimating the sign of all effects with greater absolute local false sign rate, defined in analogy to the q value of Storey, JD (The positive false discovery rate: a Bayesian interpretation and the q-value, Ann. Statist. 31 [6] 2003, 2013-2035).
Drugs that yielded signed log s values greater than 3 were considered hits. This threshold was determined by a separate calibration experiment in which Cell Titer-Glo® was measured in blank plates consisting of untreated cells to assess the noise inherent in the assay. Data are presented as the maximal effect of rescue obtained from the dose-response curve.

For the next test, the target named is T2, PI3Kα (Homo sapiens, UniProt P42336).
T2 construct: Full-length N-terminal; FLAG (N); host or cells: SF9 cells (baculovirus)
The experiment in a line: Inhibition of PI3K isoforms: PI3Kα (microfluidic electrophoresis kinase assay, PIP2/PS substrate). It is filed as biochemical. The note with it: p110α/p85α, ATP 90 μM; read-out: PI3Ka IC50. Here is the method:
The kinase substrate was prepared by mixing and sonicating fluorescently-labeled phosphatidylinositol 4,5-phosphate (PIP2) with phospho-L-serine (PS) at 1:20 ratio in 50 mM HEPES buffer pH7.5.
The kinase reactions were assembled in 384-well plates (Greiner) in a total volume of […] as follows. The kinase proteins were pre-diluted in an assay buffer comprising 50 mM HEPES, pH 7.5, 0.012% CHAPS, 1 mM DTT, 10 mM Na3VaO4, 10 mM 3-GP, 3 mM MgCl2, and 40 mM NaCl2, and dispensed into a 384-well plate (10 μL per well). Test compounds were serially pre-diluted in DMSO and added to the protein samples by acoustic dispensing (Labcyte Echo). The concentration of DMSO was equalized to 1% in all samples. All test compounds were tested at 12 concentrations. The control samples (0%-inhibition in the absence of inhibitor, DMSO only) and 100%-inhibition (in the absence of enzyme) were assembled in replicates of four and were used to calculate %-inhibition in the presence of test compounds. The reactions were initiated by addition of 10 μL of the PIP2/PS substrate supplemented with ATP. The final concentration of enzymes was 0.5 nM (PI3Kα), 1 nM (PI3Kβ), 10 nM (PI3Kγ), and 0.25 nM (PI3Kδ). The final concentration of ATP was 90 μM (PI3Kα), 60 μM (PI3Kβ), 100 μM (PI3Kγ), and 90 μM (PI3Kδ). The final concentration of PIP2/PS substrate was 1 μM (PIP2). The kinase reactions were allowed to proceed for 3 h at room temperature. Following incubation, the reactions were quenched by addition of 50 μL of termination buffer (100 mM HEPES, pH 7.5, 0.01% Triton X-100, 20 mM EDTA). Terminated plates were analyzed on a microfluidic electrophoresis instrument (Caliper LabChip® 3000, Caliper Life Sciences/Perkin Elmer). The change in the relative fluorescence intensity of the PI(4,5)P substrate and PI(3,4,5)P product peaks was measured. The activity in each test sample was determined as the product to sum ratio (PSR): P/(S+P), where P is the peak height of the product, and S is the peak height of the substrate. Percent inhibition (Pinh) was determined using the following equation:
Pinh=(PSR0% inh−PSRcompound)/(PSR0% inh−PSR100% inh)*100
in which PSRcompound is the product/sum ratio in the presence of compound, PSR0% inh is the product/sum ratio in the absence of compound, and the PSR100% inh is the product/sum ratio in the absence of the enzyme.

Some results are limits rather than exact numbers.

T1 sequence (Q9Y2I7 whole entry): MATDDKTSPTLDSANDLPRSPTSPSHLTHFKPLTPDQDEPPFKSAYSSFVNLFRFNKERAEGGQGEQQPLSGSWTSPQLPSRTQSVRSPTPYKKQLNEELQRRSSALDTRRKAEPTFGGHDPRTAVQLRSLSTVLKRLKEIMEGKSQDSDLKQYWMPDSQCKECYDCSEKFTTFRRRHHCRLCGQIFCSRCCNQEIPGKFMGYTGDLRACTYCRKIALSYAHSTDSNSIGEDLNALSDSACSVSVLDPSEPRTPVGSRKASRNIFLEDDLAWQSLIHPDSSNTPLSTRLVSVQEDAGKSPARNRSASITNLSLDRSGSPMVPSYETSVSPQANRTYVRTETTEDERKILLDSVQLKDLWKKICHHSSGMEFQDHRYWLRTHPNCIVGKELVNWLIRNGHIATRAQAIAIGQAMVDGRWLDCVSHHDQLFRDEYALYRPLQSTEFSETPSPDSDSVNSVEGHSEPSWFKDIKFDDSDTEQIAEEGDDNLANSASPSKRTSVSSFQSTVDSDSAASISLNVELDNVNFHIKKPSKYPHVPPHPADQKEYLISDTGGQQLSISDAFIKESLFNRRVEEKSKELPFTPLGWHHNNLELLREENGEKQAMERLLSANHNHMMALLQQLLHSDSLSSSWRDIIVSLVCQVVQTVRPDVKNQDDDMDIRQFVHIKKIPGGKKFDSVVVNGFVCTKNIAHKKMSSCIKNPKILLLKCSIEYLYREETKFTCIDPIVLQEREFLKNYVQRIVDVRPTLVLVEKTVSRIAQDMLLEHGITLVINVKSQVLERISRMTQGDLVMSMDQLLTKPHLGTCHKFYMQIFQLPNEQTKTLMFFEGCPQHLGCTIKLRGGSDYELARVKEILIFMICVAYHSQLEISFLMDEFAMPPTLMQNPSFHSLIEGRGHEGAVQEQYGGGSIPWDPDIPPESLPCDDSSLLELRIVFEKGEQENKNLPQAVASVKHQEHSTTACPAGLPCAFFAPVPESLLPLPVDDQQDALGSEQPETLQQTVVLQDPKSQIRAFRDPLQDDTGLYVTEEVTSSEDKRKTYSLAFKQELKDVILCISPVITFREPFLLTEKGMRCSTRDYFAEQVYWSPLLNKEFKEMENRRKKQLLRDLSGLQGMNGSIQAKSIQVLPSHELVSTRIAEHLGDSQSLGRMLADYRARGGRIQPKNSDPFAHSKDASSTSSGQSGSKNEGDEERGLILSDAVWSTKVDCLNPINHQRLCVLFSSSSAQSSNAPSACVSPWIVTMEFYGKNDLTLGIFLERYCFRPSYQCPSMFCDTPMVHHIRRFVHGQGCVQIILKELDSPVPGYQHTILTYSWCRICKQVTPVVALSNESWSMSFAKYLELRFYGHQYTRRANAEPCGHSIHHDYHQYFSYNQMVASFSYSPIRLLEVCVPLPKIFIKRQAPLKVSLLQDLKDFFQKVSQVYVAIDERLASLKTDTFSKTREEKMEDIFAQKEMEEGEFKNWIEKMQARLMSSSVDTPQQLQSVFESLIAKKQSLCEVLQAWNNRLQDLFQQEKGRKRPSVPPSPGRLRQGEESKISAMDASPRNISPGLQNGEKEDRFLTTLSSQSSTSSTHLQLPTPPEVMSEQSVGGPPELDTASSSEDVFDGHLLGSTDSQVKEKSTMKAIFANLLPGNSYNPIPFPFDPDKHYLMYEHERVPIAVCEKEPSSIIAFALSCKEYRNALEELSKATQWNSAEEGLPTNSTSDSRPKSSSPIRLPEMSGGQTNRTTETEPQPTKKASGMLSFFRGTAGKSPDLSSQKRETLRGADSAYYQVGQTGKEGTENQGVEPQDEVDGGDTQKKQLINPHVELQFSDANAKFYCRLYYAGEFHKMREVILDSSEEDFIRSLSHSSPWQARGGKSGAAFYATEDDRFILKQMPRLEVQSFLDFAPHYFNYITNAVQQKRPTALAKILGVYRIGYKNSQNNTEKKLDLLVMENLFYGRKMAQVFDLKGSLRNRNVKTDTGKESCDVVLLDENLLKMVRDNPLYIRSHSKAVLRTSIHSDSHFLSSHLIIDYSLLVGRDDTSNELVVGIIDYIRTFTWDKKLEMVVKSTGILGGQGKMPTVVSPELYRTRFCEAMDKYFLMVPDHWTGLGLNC
T2 sequence (P42336 whole entry): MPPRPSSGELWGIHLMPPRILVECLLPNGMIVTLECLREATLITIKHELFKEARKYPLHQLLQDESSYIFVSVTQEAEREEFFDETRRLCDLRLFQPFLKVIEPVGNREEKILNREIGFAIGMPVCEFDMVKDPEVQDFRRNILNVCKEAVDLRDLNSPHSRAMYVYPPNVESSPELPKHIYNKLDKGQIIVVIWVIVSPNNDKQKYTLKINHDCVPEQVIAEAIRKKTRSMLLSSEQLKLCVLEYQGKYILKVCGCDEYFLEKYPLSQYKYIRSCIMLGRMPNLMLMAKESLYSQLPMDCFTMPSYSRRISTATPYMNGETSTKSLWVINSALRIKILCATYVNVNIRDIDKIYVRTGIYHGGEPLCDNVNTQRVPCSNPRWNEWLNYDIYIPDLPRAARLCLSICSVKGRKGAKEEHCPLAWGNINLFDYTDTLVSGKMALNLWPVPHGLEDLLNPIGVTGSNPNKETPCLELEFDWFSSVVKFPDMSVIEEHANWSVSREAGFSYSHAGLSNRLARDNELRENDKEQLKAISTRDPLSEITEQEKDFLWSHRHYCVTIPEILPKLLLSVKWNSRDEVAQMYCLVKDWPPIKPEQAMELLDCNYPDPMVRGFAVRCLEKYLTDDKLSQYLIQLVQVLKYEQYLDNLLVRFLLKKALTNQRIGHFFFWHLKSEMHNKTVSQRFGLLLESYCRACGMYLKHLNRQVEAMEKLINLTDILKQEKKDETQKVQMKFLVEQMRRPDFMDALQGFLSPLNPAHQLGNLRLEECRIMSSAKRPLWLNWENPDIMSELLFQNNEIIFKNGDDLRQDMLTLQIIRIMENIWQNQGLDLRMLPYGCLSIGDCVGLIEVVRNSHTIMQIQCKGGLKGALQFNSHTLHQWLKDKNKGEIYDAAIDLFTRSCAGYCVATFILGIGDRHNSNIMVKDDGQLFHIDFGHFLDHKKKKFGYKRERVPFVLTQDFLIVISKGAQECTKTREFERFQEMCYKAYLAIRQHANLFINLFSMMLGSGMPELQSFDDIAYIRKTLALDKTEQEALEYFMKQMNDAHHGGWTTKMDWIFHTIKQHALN
T2 sequence (P27986 whole entry partner): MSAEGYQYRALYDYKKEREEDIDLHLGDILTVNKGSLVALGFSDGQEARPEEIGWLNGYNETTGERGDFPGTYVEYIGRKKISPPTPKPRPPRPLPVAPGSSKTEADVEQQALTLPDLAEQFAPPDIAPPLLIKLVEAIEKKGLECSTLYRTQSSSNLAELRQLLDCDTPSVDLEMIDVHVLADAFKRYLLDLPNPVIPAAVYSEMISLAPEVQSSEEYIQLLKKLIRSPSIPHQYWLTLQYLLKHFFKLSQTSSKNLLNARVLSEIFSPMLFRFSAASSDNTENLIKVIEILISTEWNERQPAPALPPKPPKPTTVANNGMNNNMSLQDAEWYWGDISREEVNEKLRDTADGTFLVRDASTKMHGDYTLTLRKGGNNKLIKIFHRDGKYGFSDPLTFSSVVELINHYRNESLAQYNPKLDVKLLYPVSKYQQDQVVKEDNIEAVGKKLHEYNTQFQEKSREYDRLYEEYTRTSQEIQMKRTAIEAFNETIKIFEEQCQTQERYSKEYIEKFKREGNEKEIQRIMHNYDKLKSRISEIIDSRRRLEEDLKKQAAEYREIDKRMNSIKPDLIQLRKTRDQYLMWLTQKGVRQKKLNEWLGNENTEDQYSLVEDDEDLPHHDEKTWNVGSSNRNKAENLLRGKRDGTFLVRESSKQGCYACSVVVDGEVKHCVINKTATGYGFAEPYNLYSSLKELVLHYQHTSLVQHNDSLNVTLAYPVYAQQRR

Take `Cc1cccc(-c2cnn(-c3nc(N4CCOCC4)c4oc(-c5ccncn5)cc4n3)c2)c1` [Compound 143, 4-morpholino-6-(pyrimidin-4-yl)-2-(4-(m-tolyl)-1H-pyrazol-1-yl)furo[3,2-d]pyrimidine]: the IC50 in test [1] amounted to 25 nM. Also, the values for the EC50 in test [2] and in test [3] were 1000 nM and 48 nM, respectively.
Consider `CNC(=O)c1cc2nc(Nc3cc(C4CCCC4)n[nH]3)nc(N3CCOCC3)c2o1` [Compound 83, 2-((5-cyclopentyl-1H-pyrazol-3-yl)amino)-N-methyl-4-morpholinofuro[3,2-d]pyrimidine-6-carboxamide, hydrogen chloride], for which the IC50 on PI3Kα came to 3720 nM; in test [1], 4090 nM.
Consider `Cc1cccc(-c2cnn(-c3nc(N4CCOCC4)c4oc(C(=O)NCC5COC5)cc4n3)c2)c1` [Compound 107, 4-morpholino-N-(oxetan-3-ylmethyl)-2-(4-(m-tolyl)-1H-pyrazol-1-yl)furo[3,2-d]pyrimidine-6-carboxamide], for which the IC50 in test [1] was 1.9 nM. The EC50 in test [2] is 1000 nM; in test [3], 59.5 nM.
The matching figures for `Cc1cccc(-c2ccn(-c3nc(N4CCOCC4)c4oc(-c5ccccn5)cc4n3)n2)c1` [Compound 91, 4-morpholino-6-(pyridin-2-yl)-2-(3-(m-tolyl)-1H-pyrazol-1-yl)furo[3,2-d]pyrimidine]: 3.9 nM, 1000 nM and 24.5 nM.
Consider `CCc1cc(Nc2nc(N3CCOCC3)c3oc(C(=O)NC)cc3n2)[nH]n1` [Compound 87, 2-((5-ethyl-1H-pyrazol-3-yl)amino)-N-methyl-4-morpholinofuro[3,2-d]pyrimidine-6-carboxamide, hydrogen chloride], for which the IC50 at PI3Kα is 3480 nM; in test [1], ≥ 20000 nM.
Consider `Cc1cccc(-c2cnn(-c3nc(N4CCOCC4)c4oc(-c5ccccn5)cc4n3)c2)c1` [Compound 103, 4-morpholino-6-(pyridin-2-yl)-2-(4-(m-tolyl)-1H-pyrazol-1-yl)fur[3,2-d]pyrimidine], for which the IC50 in test [1] came out at 11.2 nM. Besides, in test [2], the EC50 came out at 1000 nM.
With `Cc1cccc(-c2cnn(-c3nc(N4CCOCC4)c4oc(C(=O)NC5CC5)cc4n3)c2)c1` [Compound 100, N-cyclopropyl-4-morpholino-2-(4-(m-tolyl)-1H-pyrazol-1-yl)furo[3,2-d]pyrimidine-6-carboxamide], in test [1], the IC50 stood at 1.2 nM. The results for the EC50 in test [2] and in test [3] were 300 nM and 18 nM, respectively.
For `Cc1cccc(-c2cnn(-c3nc(N4CCOCC4)c4oc(-c5cccnc5)cc4n3)c2)c1` [Compound 102, 4-morpholino-6-(pyridin-3-yl)-2-(4-(m-tolyl)-1H-pyrazol-1-yl)furo[3,2-d]pyrimidine], the IC50 in test [1] was 12.1 nM. For the same compound, the figures for the EC50 in test [2] and in test [3] were 1000 nM and 43 nM, respectively.
The matching figures for `Cc1cccc(-c2cnn(-c3nc(N4CCOCC4)c4oc(C(=O)NC5COC5)cc4n3)c2)c1` [Compound 106, 4-morpholino-N-(oxetan-3-yl)-2-(4-(m-tolyl)-1H-pyrazol-1-yl)furo[3,2-d]pyrimidine-6-carboxamide]: 10.2 nM, 1000 nM and 53.5 nM.
Regarding `Cc1cccc(-c2ccn(-c3nc(N4CCOCC4)c4oc(-c5cccnc5)cc4n3)n2)c1` [Compound 90], the IC50 in test [1] stood at 7.7 nM. In test [3], the EC50 stood at 20.5 nM.
Regarding `CCNC(=O)c1cc2nc(-n3cc(-c4cccc(C)c4)cn3)nc(N3CCOCC3)c2o1` [Compound 101, N-ethyl-4-morpholino-2-(4-(m-tolyl)-1H-pyrazol-1-yl)furo[3,2-d]pyrimidine-6-carboxamide], the IC50 in test [1] is 2.9 nM. The EC50 in test [2] came out at 1000 nM.
Take `Cc1cccc(-c2cc(Nc3nc(N4CCOCC4)c4oc(-c5ccncc5)cc4n3)[nH]n2)c1` [Compound 3, 4-morpholino-N-[5-(m-tolyl)-1H-pyrazol-3-yl]-6-(4-pyridyl)furo[3,2-d]pyrimidin-2-amine, hydrogen chloride]: the IC50 in test [1] came to 0.8 nM. Besides, the EC50 worked out at 3000 nM in test [2] and 16 nM in test [3].
For `CCNC(=O)c1cc2nc(Nc3cc(-c4ccccc4)[nH]n3)nc(N3CCOCC3)c2o1` [Compound 56, N-ethyl-4 morpholino-2-[(5-phenyl-1H-pyrazol-3-yl)amino]furo[3,2-d]pyrimidine-6-carboxamide, hydrogen chloride] the same measures were 2 nM, 1000 nM and 15 nM.
For the compound `Cc1cccc(-c2cnn(-c3nc(N4CCOCC4)c4oc(C(=O)NCCCCN(C)C)cc4n3)c2)c1` [Compound 110, N-(4-(dimethylamino)butyl)-4-morpholino-2-(4-(m-tolyl)-1H-pyrazol-1-yl)furo[3,2-d]pyrimidine-6-carboxamide], the IC50 in test [1] is 2.9 nM. The compound further came in with an EC50 in test [3] of 33 nM.
For the compound `Cc1cccc(-c2cnn(-c3nc(N4CCOCC4)c4oc(C(=O)NCCCS(C)(=O)=O)cc4n3)c2)c1` [Compound 119, N-(3-(methylsulfonyl)propyl)-4-morpholino-2-(4-(m-tolyl)-1H-pyrazol-1-yl)furo[3,2-d]pyrimidine-6-carboxamide], in test [1], the IC50 came to 8.2 nM. In addition, a half-maximal response in test [3] (EC50) required 96.5 nM.
`Cc1cccc(-c2cnn(-c3nc(N4CCOCC4)c4oc(C(=O)NC5CCCN(C)CC5)cc4n3)c2)c1` (stereo not drawn) [Compound 129, N-(1-methylazepan-4-yl)-4-morpholino-2-(4-(m-tolyl)-1H-pyrazol-1-yl)furo[3,2-d]pyrimidine-6-carboxamide]: the IC50 in test [1] was determined as 11.8 nM. In test [3], this compound registered an EC50 of 9 nM.
For `Cc1cccc(-c2cnn(-c3nc(N4CCOCC4)c4oc(C(=O)NC5CCOC5)cc4n3)c2)c1` (stereo not drawn) [Compound 126, 4-morpholino-N-(tetrahydrofuran-3-yl)-2-(4-(m-tolyl)-1H-pyrazol-1-yl)furo[3,2-d]pyrimidine-6-carboxamide] the same measures were 2.9 nM and 30.5 nM.
